One block for each compound: values may come before it.
Experiments:
[1] = test system: acylethanolamide hydrolyzing enzyme (FAAH and an enzyme different from FAAH) in rat intestinal homogenate; test: OEA and anandamide (acylethanolamide) hydrolysis in rat intestinal homogenate; format: biochemical; conditions: for inhibition of OEA hydrolysis: pH 7.0, 50 μM 3H-OEA, 20 min, inhibitor concentration not given ('same concentration')
Experimental: Enzymatic hydrolysis of OEA is investigated in an assay containing 5-500 μg of intestinal protein incubated with 1-500 μM of ^3H-OEA ([1-^3H-ethanolamine]OEA and dilutions thereof with non-radioactive OEA to obtain a specific activity of 0.1-100,000 dpm/pmol) or ^3H-anandamide ([1−^3H-ethanolamine]anandamide and dilutions thereof with non-radioactive anandamide to obtain a specific activity of 0.1-100,000 dpm/pmol) in a total volume of 100-500 μl of 10-100 mM buffer (pH 3-11), initially utilizing 100 mM Tris-HCl (pH 8.0) containing 0-2 mM EDTA and 0-5 mg/ml of fatty acid-free bovine serum albumin with or without addition of D-erythro-MAPP (or a related compound; dissolved in 1-10 μl ethanol) in a final concentration of 0.0001-1000 μM (1-10 μl ethanol is added to control assays). Incubations are carried out at 37° C. for 0-120 min and samples are withdrawn at 2-3 time points. The reaction in a sample is terminated by addition of 200-1000 μl of chloroform:methanol (1:1 v/v) and cooling on ice, followed by 10 min centrifugation at low speed, where after 50-250 μl of the upper phase is extracted and the radio-labeled product ethanolamine formed is quantified by liquid scintillation counting. […]
The reaction in a sample is terminated by addition of 400 μl chloroform:methanol (1:1 v/v) and cooling on ice, followed by 10 min centrifugation at low speed, where after 100 μl of the upper phase is extracted and the radio-labeled product ethanolamine formed is quantified by liquid scintillation counting. In another set of experiments the following assay conditions are adjusted—in order to be identical to those of the ceramidase assay (see example 1B)—by using 25 μg of protein from rat intestinal (jejunum) homogenate in a total volume of 100 μl, 50 μM of ^3H-oleoylethanolamide (OEA; 25.000 dpm) or ^3H-anandamide (AEA; 25.000 dpm), 100 mM citrate phosphate (7.0), 8 mM CHAPS. […] Incubation at 37° C. is carried out for 0 and 20 min after establishment of linearity of product formation within this time frame. […]

ceramidase = test: Ceramide hydrolysis in rat intestinal homogenate; format: biochemical; conditions: for inhibition of ceramide hydrolysis: pH 7.0, 50 μM 14C-octanoyl-D-sphingosine, 25 μg protein, 20 min, inhibitor concentration not given ('same concentration')
Experimental: Enzymatic hydrolysis of ceramide is measured in an assay containing 5-500 μg of intestinal protein incubated with 1-5000 μM of ^14C-ceramide [(N-[1-^14C]acyl-D-erythro sphingosine (with the acyl group being from six to twenty carbon atoms) and dilutions thereof with non-radioactive ceramide to obtain a specific activity of 0.1-100,000 dpm/pmol], which is sonicated in buffer or added in 5-50 μl of ethanol, to a total volume of 50-500 μl of 10-100 mM buffer (pH 3-11) initially utilizing 100 mM Tris-HCl (pH 8.0) containing 0-100 mM CHAPS, 0-10 mM DTT, 0-1% Nonidet P-40, 0-5 mg/ml of bovine serum albumin, and 0-500 mM NaCl with or without addition of D-erythro-MAPP (or a related compound; dissolved 1-10 μl ethanol) in a final concentration of 0.0001-1000 μM (1-10 μl ethanol is added to control assays). Incubations are carried out at 37° C. for 0-120 min and samples are withdrawn at 2-3 time points. The reaction in each sample is terminated by addition of 200-1000 μl of methanol:chloroform:heptane (28:25:20 v/v/v) and 50-400 μl of potassium carbonate buffer (pH 10). After mixing, the samples are centrifuged 1-20 min at low speed centrifugation and 50-400 μl of the upper phase is extracted and the radio-labeled product, free fatty acid, in the upper phase is quantified by liquid scintillation counting. From selected samples, another 50-400 μl aliquot of the upper phase as well as 50-400 μl of the lower phase are evaporated to dryness under a stream of nitrogen, re-dissolved in 10-200 μl of chloroform:methanol (19:1 v/v) and applied on thin-layer chromatography plates, eluted in chloroform:methanol:acetic acid (94:1:5 v/v/v) followed by quantification of the distribution of the radiolabeled free fatty acid in the two phases using a Phosphorlmager scanner (STORM; Molecular Dynamics, Sunnyvale, Calif., USA) and ImageQuant software (GE Health Care, Amersham, United Kingdom). The distribution of released fatty acid is used to calculate the total amount of product formed in each sample. […]

dietary obese mice = test: Sub-chronic food intake, water intake and body weight study in dietary obese mice; format: in vivo; conditions: for cumulative food intake: D-threo-NMAPPD 30 mg/kg, OEA 2 mg/kg, or both mixed, high-fat diet, mean±SEM
Experimental: Food intake studies are performed with male Sprague-Dawley rats (250-350 g) or male C57BL/6J mice (Charles River, Sulzfeld, Germany). […] These animals are left on the diet for 12 weeks before the experiment is commenced. The animals are group randomized into weight-matched groups of n=4-12 to receive up to four administrations (0.1-10 ml/kg p.o., i.p., s.c., or i.v.) of a test compound (e.g. MAPP or NMAPPD) or vehicle (saline optionally with Tween 80, polyethylene glycol, DMSO, ethanol, Cremophor excipient) with at least seven days interval. All compounds are administered just prior to the beginning of the dark period optionally after a 24 h fasting period. Food intake (digital balance) and water intake (registered gravimetrically or by means of lick counts) and activity (consecutive beam breaks) are monitored for at least 12 hours following the time of injection. After the treatment, the animals are euthanized by use of CO2 followed by decapitation.
3C. Furthermore, a study with dietary obese mice was carried out. After 12 weeks on high-fat diet, animals were stratified according to weight. At day −3, animals were randomised in 5 groups (n=9-10 in each group) to participate in one of following drug treatment groups; vehicle (5% Tween 80, 5% polyethylene glycol, 90% saline), OEA 2 mg/kg, OEA 5 mg/kg, D-threo-NMAPPD 30 mg/kg, D-threo-NMAPPD 30 mg/kg+OEA 2 mg/kg (mixed). The animals received one intraperitoneal injection daily (2 ml/kg) of vehicle or drug(s) suspended in vehicle at […]. The experiment was preceded by a 3 day run-in period with mock injections and handling to habituate the animals to the injection paradigm. On day 0 the animals were dosed for the first time. All animals were fed high-fat diet ad lib—also during the treatment period. Body weight, food and water intake was measured every other day for the following 14 days depending on the animal's state.

diet-induced obese rats = conditions: 5 mg/kg OEA i.p. daily, from day 2 and on, refs (9,22); cited from earlier work
diet-induced obese mice = conditions: 5 mg/kg OEA i.p. daily, from day 2 and on, refs (9,22); cited from earlier work

inhibition of OEA hydrolysis ([1]; 25 μg protein): 11%
effect on AEA hydrolysis ([1]; pH 7.0, 50 μM 3H-anandamide, inhibitor concentration not clearly printed): unaffected
inhibition of ceramide hydrolysis (ceramidase): approximately 24%
Structure (SMILES): CCCCCCCCCCCCCC(=O)N[C@H](C)[C@@H](O)c1ccccc1 [D-erythro-MAPP, (1S,2R) D-erythro-N-myristoyl-2-amino-1-phenyl-propanol]

inhibition of OEA hydrolysis ([1]; 25 μg protein): 30%
dose dependence of inhibition of OEA hydrolysis ([1]; pH 7.0, increasing concentrations (FIG. 2C)): dose-dependent inhibition
inhibition of ceramide hydrolysis (ceramidase): 30%
Structure (SMILES): CCCCCCCCCCCCCC(=O)N[C@H](CO)[C@H](O)c1ccc([N+](=O)[O-])cc1 [D-threo-NMAPPD, (1R,2R) D-threo-N-myristoyl-2-amino-1-(4′-nitrophenyl)-1,3-propandiol]
food intake versus vehicle (dietary obese mice; D-threo-NMAPPD 30 mg/kg i.p. daily (alone and with OEA 2 mg/kg), from day 1): consistently and significantly reduced
water intake versus vehicle (dietary obese mice; daily i.p., D-threo-NMAPPD 30 mg/kg at day 1 and day 12, or with OEA 2 mg/kg (FIG. 4B)): significant decreased water intake
loss of body weight (dietary obese mice; day 12, daily i.p., D-threo-NMAPPD 30 mg/kg alone or with OEA 2 mg/kg, vehicle 3.7%): 8.9%
cumulative food intake (dietary obese mice; day 12, daily i.p.): 20.4 ± 1.2 g

Structure (SMILES): CCCCCCCC/C=C\CCCCCCCC(=O)NCCO [OEA, oleoylethanolamide, reference compound]
food intake versus vehicle (dietary obese mice; OEA 2 mg/kg i.p. daily, day 12): not significantly different
food intake versus vehicle (dietary obese mice; OEA 5 mg/kg i.p. daily, day 5 and 7): significantly reduced food intake
cumulative food intake (dietary obese mice; day 12, daily i.p.): 23.3 ± 1.0 g
body weight change (diet-induced obese rats): reduced body weight change
body weight change (diet-induced obese mice): reduced body weight change

Structure (SMILES): NC(=O)c1cccc(-c2cccc(OC(=O)NC3CCCCC3)c2)c1 [URB597, cyclohexyl carbamic acid 3′-carbamoyl-biphenyl-3-yl ester, reference compound]
effect on hydrolysis of OEA and AEA over pH range ([1]; 10 μM URB597, pH 5.5 to pH 10.5 (FIG. 3C)): to varying degrees were inhibited
inhibition of acylethanolamide hydrolysis ([1]; 10 μM inhibitor, pH 7.0, 50 μM substrate, 25 μg protein, 20 min 37° C. (FIG. 2A)): approximately 79%
effect on ceramide hydrolysis over pH range (ceramidase; 10 μM URB597, pH profile (FIG. 3C)): completely unaffected
